Test results taken from patent publication US20240217946A1, “ANTIDEPRESSANT AND ANXIOLYTIC SUBSTITUTED CINNAMAMIDE COMPOUND” (TASLY PHARMACEUTICAL GROUP CO., LTD., priority 2021, published 2024).
Values joined by “and” are separate entries in the source; they are usually repeats but may differ in a detail not shown here. Identical values can stand only once. Like-named read-outs stand apart in the source and are kept apart here.

Experiments:
[1] = Pharmacokinetics and absolute bioavailability in rats (LC-MS/MS); assay type: in vivo; conditions: rat; for MRT inf: read-out: MRT0-∞
Source text: A LC-MS/MS method for determination of compound I-5 and compound M2 in rat plasma was established through experiments to investigate the pharmacokinetic characteristics and absolute bioavailability of compounds in rats.
20 SPF-grade SD male rats (body weight 220±20 g), purchased from Beijing Vital River Laboratory Animal Technology Co., Ltd.
• Chromatographic column: waters BEH C18 1.7 μm; 2.1×100 mm Column • Internal standard: D-I-5 (deuterated compound I-5, with the following structural formula)
20 SD rats were randomly divided into 4 groups, with 5 rats in each group. […]
50 μL plasma was taken, 50 μL D-I-5 (20 ng/mL dissolved in acetonitrile) was added, the mixture was whirled for 30 s, then 100 μL acetonitrile was added; the mixture was fully whirled for 2 min, and was centrifuged at 4° C. at 12000 r/min for 3 min, 50 μL supernatant was taken, 50 μL aqueous solution was added for dilution, followed by whirling for Imin, and 4 μL sample was injected.
The mean plasma concentration-time curves of rats after oral intragastric administration and intravenous administration were respectively shown in FIGS. 8 and 9. Data were processed using DAS 3.0 pharmacokinetic software (Chinese Professional Committee of Mathematical Pharmacology, Shanghai, China), and statistical moment parameters of the non-compartmental model were calculated, Cmax and Tmax being measured values.

[2] = system: NA reuptake in rat brain synaptosomes; test: 3H-NA reuptake by rat brain synaptosomes; assay type: biochemical; conditions: 3H-NA 10 nM, rat brain synaptosomes; read-out: NA inhibition rate % IC50
Source text: At present, it is believed that absolute or relative deficiencies of the central monoamine neurotransmitters 5-hydroxytryptamine (5-HT), norepinephrine (NA) and dopamine (DA) are closely related to depression and anxiety.
Synaptosomes were separated using methods in literature to prepare brain synaptosomes. SD rats were rapidly decapitated with a small animal decapitator. After decapitation, brains were taken out quickly and precooled in an ice-water mixture, and the pia mater and vascular tissue were removed. Brain tissue was taken out. 10 times volume (ml/g) of 10 mM Tris HCl buffer (containing 0.32 M sucrose, pH 7.4) was added, an ultrasonic cell pulverizer was used for homogenization (maintaining at a low temperature), and the brain tissue was homogenized and centrifuged for 10 min (4° C., 1,000 g). After balanced centrifugation (1500 g, 10 min) at 4° C., precipitate was discarded, then supernatant was taken, and centrifugation (20000 g) was performed again for 30 min. The supernatant was discarded and the precipitate, i.e. crude extract of synaptic corpuscles, was retained. The precipitate was further suspended in 0.32 M cold sucrose solution and then carefully laid on 1.2 M and 0.8 M (10 ml each) cold sucrose gradient solutions which had been laid sequentially on the bottom of the tube, followed by balanced centrifugation (38000 g) at 4 °C for 60 min. A suspension band at the 0.8-1.2 M sucrose interface was carefully collected with a puncture needle, which was placed in 10 ml of 0.32 M cold sucrose solution and mixed well, and equilibrium centrifuged (20000 g) at 4 °C for 30 min. The precipitate was refined brain synaptosomes. […]
The percentage inhibition of isotope ligand binding by each compound was calculated according to the following equation: […]

[3] = male, SD, plasma, po, intragastric administration 12.5 mg/kg, n = 5
[4] = male, SD, plasma, intravenous administration 2.5 mg/kg, n = 5
[5] = male, Sprague-Dawley (SD), plasma, po, intragastric administration 12.5 mg/kg, n = 5
[6] = male, Sprague-Dawley (SD), plasma, intravenous administration 2.5 mg/kg, n = 5

bioavailability ([1]; male, SD, plasma, oral, absolute bioavailability, intragastric 12.5 mg/kg vs intravenous 2.5 mg/kg, read-out: F (bioavailability, %)): 24.1%
AUC(0-t) [1, 3]: 523 ± 433 ng·h/mL
Tmax [1, 3]: 21 min
half-life [1, 3]: 55.8 ± 22.8 min
C0 [1, 4]: 2050 ± 907 ng/mL
half-life [1, 4]: 39.6 ± 4.2 min
concentration at 0.08 h ([1]; male, SD, plasma, iv, 2.5 mg/kg, single intravenous 2.5 mg/kg, 0.08 h, read-out: Plasma concentration, Mean): 1150 ng/mL
concentration at 0.25 h ([1]; male, SD, plasma, iv, 2.5 mg/kg, single intravenous 2.5 mg/kg, 0.25 h, read-out: Plasma concentration, Mean): 393 ng/mL
concentration at 0.5 h ([1]; male, SD, plasma, iv, 2.5 mg/kg, single intravenous 2.5 mg/kg, 0.50 h): 152 ng/mL
concentration at 1 h ([1]; male, SD, plasma, iv, 2.5 mg/kg, single intravenous 2.5 mg/kg, 1 h, read-out: Plasma concentration, Mean): 60.3 ng/mL
concentration at 2 h ([1]; male, SD, plasma, iv, 2.5 mg/kg, single intravenous 2.5 mg/kg, 2 h): 16.8 ng/mL
concentration at 3 h ([1]; male, SD, plasma, iv, 2.5 mg/kg, single intravenous 2.5 mg/kg, 3 h): 6.9 ng/mL
concentration at 4 h ([1]; male, SD, plasma, iv, 2.5 mg/kg, single intravenous 2.5 mg/kg, 4 h, read-out: Plasma concentration, Mean): 3 ng/mL
concentration at 4 h ([1]; male, SD, plasma, iv, 2.5 mg/kg, single intravenous 2.5 mg/kg, 4 h, read-out: Plasma concentration, individual rats): 3.01 ng/mL
concentration at 0.08 h ([1]; male, SD, plasma, oral, 12.5 mg/kg, single intragastric 12.5 mg/kg, 0.08 h, read-out: Plasma concentration, Mean): 118 ng/mL
concentration at 0.25 h ([1]; male, SD, plasma, oral, 12.5 mg/kg, single intragastric 12.5 mg/kg, 0.25 h, read-out: Plasma concentration, Mean): 367 ng/mL
concentration at 0.5 h ([1]; male, SD, plasma, oral, 12.5 mg/kg, single intragastric 12.5 mg/kg, 0.50 h): 334 ng/mL
concentration at 1 h ([1]; male, SD, plasma, oral, 12.5 mg/kg, single intragastric 12.5 mg/kg, 1 h, read-out: Plasma concentration, Mean): 266 ng/mL
concentration at 2 h ([1]; male, SD, plasma, oral, 12.5 mg/kg, single intragastric 12.5 mg/kg, 2 h): 109 ng/mL
concentration at 3 h ([1]; male, SD, plasma, oral, 12.5 mg/kg, single intragastric 12.5 mg/kg, 3 h): 44.4 ng/mL
concentration at 4 h ([1]; male, SD, plasma, oral, 12.5 mg/kg, single intragastric 12.5 mg/kg, 4 h, read-out: Plasma concentration, Mean): 15.3 ng/mL
concentration at 6 h ([1]; male, SD, plasma, oral, 12.5 mg/kg, single intragastric 12.5 mg/kg, 6 h): 6.6 ng/mL
Cmax ([1]; male, SD, plasma, po, 12.5 mg/kg, intragastric administration 12.5 mg/kg, n = 5, read-out: Cmax): 361 ± 258 ng/mL
AUC(0-inf) [1, 5]: 659 ± 371 ng·h/mL
MRT inf [1, 5]: 69.6 ± 7.2 min
AUC(0-inf) [1, 6]: 438 ± 139 ng·h/mL
AUC(0-t) [1, 6]: 436 ± 138 ng·h/mL
MRT inf [1, 6]: 22.2 ± 6.6 min
Plasma concentration, individual rats ([1]; single intragastric 12.5 mg/kg, 8 h): BOL and BQL (4×)
Plasma concentration, individual rats ([1]; single intravenous 2.5 mg/kg, 6 h): BQL
Plasma concentration, individual rats ([1]; single intravenous 2.5 mg/kg, 8 h): BQL
IC50 [2]: 17.2 ± 1.59 nM
Structure (SMILES): CC(C)CNC(=O)/C=C/c1cc2c(c(C(F)(F)F)c1)OCO2 [Compound I-5]
Plasma concentration, individual rats ([1]; single intragastric 12.5 mg/kg, 0.08 h): 140 ng/mL and 3.59 ng/mL and 70.1 ng/mL and 214 ng/mL and 164 ng/mL
Plasma concentration, individual rats ([1]; single intragastric 12.5 mg/kg, 0.25 h): 706 ng/mL and 7.11 ng/mL and 371 ng/mL and 389 ng/mL and 361 ng/mL
Plasma concentration, individual rats ([1]; single intragastric 12.5 mg/kg, 0.50 h): 735 ng/mL and 4.71 ng/mL and 416 ng/mL and 268 ng/mL and 246 ng/mL
Plasma concentration, individual rats ([1]; single intragastric 12.5 mg/kg, 1 h): 450 ng/mL and BQL and 391 ng/mL and 92.3 ng/mL and 132 ng/mL
Plasma concentration, individual rats ([1]; single intragastric 12.5 mg/kg, 2 h): 224 ng/mL and BQL and 134 ng/mL and 35.8 ng/mL and 43.0 ng/mL
Plasma concentration, individual rats ([1]; single intragastric 12.5 mg/kg, 3 h): 84.5 ng/mL and BQL and 58.4 ng/mL and 11.3 ng/mL and 23.6 ng/mL
Plasma concentration, individual rats ([1]; single intragastric 12.5 mg/kg, 4 h): 27.3 ng/mL and BQL and 17.3 ng/mL and 10.7 ng/mL and 6.16 ng/mL
Plasma concentration, individual rats ([1]; single intragastric 12.5 mg/kg, 6 h): 5.64 ng/mL and BQL and 3.20 ng/mL and 5.66 ng/mL and 12.2 ng/mL
Plasma concentration, individual rats ([1]; single intravenous 2.5 mg/kg, 0.08 h, 2.5 mg/kg): 1750 ng/mL and 1150 ng/mL and 659 ng/mL and 865 ng/mL and 1350 ng/mL
Plasma concentration, individual rats ([1]; single intravenous 2.5 mg/kg, 0.25 h, 2.5 mg/kg): 628 ng/mL and 247 ng/mL and 540 ng/mL and 260 ng/mL and 291 ng/mL
Plasma concentration, individual rats ([1]; single intravenous 2.5 mg/kg, 0.50 h, 2.5 mg/kg): 243 ng/mL and 75.7 ng/mL and 225 ng/mL and 95.9 ng/mL and 120 ng/mL
Plasma concentration, individual rats ([1]; single intravenous 2.5 mg/kg, 1 h, 2.5 mg/kg): 103 ng/mL and 24.9 ng/mL and 80.2 ng/mL and 52.0 ng/mL and 41.6 ng/mL
Plasma concentration, individual rats ([1]; single intravenous 2.5 mg/kg, 2 h, 2.5 mg/kg): 25.1 ng/mL and 6.66 ng/mL and 19.3 ng/mL and 15.2 ng/mL and 17.7 ng/mL
Plasma concentration, individual rats ([1]; single intravenous 2.5 mg/kg, 3 h, 2.5 mg/kg): 8.95 ng/mL and 2.49 ng/mL and 9.76 ng/mL and 5.45 ng/mL and 7.89 ng/mL
Plasma concentration, individual rats ([1]; single intravenous 2.5 mg/kg, 4 h, 2.5 mg/kg): BQL and 3.38 ng/mL and 2.60 ng/mL and 3.08 ng/mL
